# Measurements as given in US10945971B2, “Sphingosine kinase type 1 inhibitors and uses thereof” (Enzo Therapeutics, Inc., priority 2008, dated 2021).
# Assays:
# [1] = tested on: blasts obtained from patients with AML; details: U.S. Ser. No. 12/387,228; cited from earlier work
# [2] = U.S. Ser. No. 12/387,228; cited from earlier work
# Akt = test: Western blotting of Akt phosphorylation, LN229 cells; type: cell-based, human; details: LN229, serum, LPA or EGF stimulated, 20 minutes treatment
# Protocol: (§1) Cells were scraped in buffer containing 20 mM Tris-HCl, pH 7.5, 50 mM NaCl, 50 mM NaF, 30 mM Na4P2O7, 20 mM 2-glycerophosphate, 1 mM Na3VO4, 5 mM EDTA, 2 mM EGTA, 0.5% SDS and protease inhibitor cocktail (1:200 dilution) and probe-sonicated. Equal amounts of protein determined with bicinchoninic acid (Pierce, Rockford, Ill.), were resolved by SDS-PAGE and transferred to nitrocellulose membranes. Blots were blocked with 5% non-fat dry milk in Tris-buffered saline containing 0.1% […] (TBST) for 1 h at room temperature, and then incubated with primary antibodies (1:3,000 in 1% BSA) overnight, followed by the appropriate HRP-conjugated secondary antibodies (1:40,000 in 1% BSA). Immunocomplexes were visualized by enhanced chemiluminescence (Pierce).
# GBM6 glioblastoma cells = test: Cell proliferation (WST-1), primary non-established GBM6 cells; type: cell-based, human
# Protocol: U373-MG and LN229 human glioblastoma cells (ATTC, Manassas, Va.) were cultured in DMEM supplemented with 5% FCS. Primary human non-established glioblastoma GBM6 cells were kindly provided by Dr. C. David James and were passaged as tumors in nude mice and subcultured for 1 week following isolation from tumors in media containing 2% FCS to prevent growth of contaminating rodent fibroblasts and then cultured in 5% FCS as described (Yacoub et al., Mol Cancer Ther 7:314-329, 2008). LN229 cells were transfected with H2B-EGFP plasmid and stable colonies were isolated following selection with 1 mg/ml of G418. LN229-H2B-EGFP cells were passaged as tumors as described above.
# Cells were plated at 10,000 cells/well in 48-well plates and allowed to attach for 24 h. Cell proliferation was measured at the indicated times with WST-1 and absorbance was measured in a plate reader at 450 nm with background subtraction at 630 nm. Cell death was detected by trypan blue exclusion assays in which the percent of blue dye incorporating cells were determined using a light microscope and a hemacytometer as described (Yacoub et al. Mol Cancer Ther 7:314-329, 2008). Apoptotic cell death was measured by staining cell nuclei with the Hoechst dye bisbenzimide and apoptotic cells were identified by condensed, fragmented nuclear regions as described previously (Sankala et al. Cancer Res 67:10466-10474, 2007). […]
# [3] = tested on: human leukemic cell lines; details: U.S. Ser. No. 12/387,228; cited from earlier work
# U373 cells = test: PMA-stimulated F-actin reorganization and lamellipodia formation (phalloidin staining, confocal); type: cell-based, human
# Protocol: Cells were grown on 3-aminopropyl-triethoxysilane-treated 15 mm glass cover slips in 24 well plates. Following treatments, cells were washed with PBS, fixed with 3% paraformaldehyde for 10 min at room temperature, and blocked in TBST buffer containing 1% BSA. After washing, cells were incubated in the same buffer containing Alexa-conjugated phalloidin for 30 min, followed by 15 min incubation in 10 μg/ml of Hoechst 33342. For TUNEL assays, fixed cells were permeabilized with 0.5% TX-100 for 30 min, washed and incubated in TdT buffer supplemented with 250 μM CoCl2, 20 units TdT (NEB, Ipswich, Mass.) and 1 nM fluorescein-12-dUTP (Roche) for 1 h at 37° C. Coverslips were washed with TBST, rinsed in water, air dried and mounted on glass slides with Cytoseal 60 polymer (Richard-Allan Scientific, Kalamazoo, Mich.). Images were collected on an LSM 510 laser confocal microscope (Zeiss, Thornwood, N.Y.) with a 100× oil immersion objective.
# LN229 cells [4] = test: In vitro invasion into Matrigel, LN229 cells; type: cell-based, human
# Protocol: (§2) Boyden chamber invasion assays were carried out essentially as described (Shida et al. Cancer Res 68:6569-6577, 2008).
# LN229 xenograft tumors = test: Subcutaneous LN229 xenograft tumors in nu/nu mice; type: in vivo; details: 10 mg/kg i.p. every other day
# Protocol: Adult male NCI nu/nu mice were purchased from NCI (Frederick, Md.). All animal studies were conducted in the Animal Research Core Facility at VCU School of Medicine in accordance with the institutional guidelines. LN229 cells (1×10^6) were injected in the flanks (4 sites per mouse). Palpable tumors appeared in about one week. Five days later, when tumors reached 3-4 mm in diameter, mice were randomly separated into 2 groups and injected i.p. with saline or SK1-I (10 mg/kg) every other day. Tumor measurements were made with calipers, and tumor volume was calculated using the formula: (π×[length in millimeters]×[width in millimeters]2)/6. At the end of the experiment, the animals were euthanized and the tumors removed, fixed in formalin and embedded in paraffin, or frozen in liquid nitrogen.
# Paraffin sections were dewaxed, rehydrated, incubated with proteinase K before permeabilization, and then stained with hematoxylin-eosin. Frozen sections were dried, fixed in formalin, and stained with antibodies against mouse CD-31 (BD Pharmingen, San Jose, Calif.), or rabbit antibodies against phospho-Akt (Ser473) (Cell Signaling) followed by immunohistochemistry with Alexa-488-conjugated species-specific secondary antibodies. Cryosections were air dried, permeabilized with 0.5% Triton X-100, and stained with a fluorescein TUNEL labeling kit (Roche Applied Sciences, Indianapolis, Ind.) followed by counterstaining with Hoechst. Sections were also stained with goat anti-human VEGF affinity-purified antibody (R&D), visualized with anti-goat horseradish peroxidase-diaminobenzidene staining kit (R&D) and counterstained with hematoxylin.
# ERK1/2 = test: Western blotting of pERK1/2, GBM6 cells; type: cell-based, human
# Protocol: as §1
# LN229 cells [5] = test: Boyden chamber chemotaxis, LN229 cells; type: cell-based, human
# Protocol: as §2
# EGFR, Gab1 = test: EGF-induced tyrosine phosphorylation of EGFR and Gab1; type: cell-based
# Protocol: as §1
# [6] = Metabolism of SK1-I in cells by LC-ESI-MS/MS; type: in vitro ADME
# Description: Lipids were extracted and phosphorylated and unphosphorylated sphingoid bases, individual ceramide acyl chain species, as well as SK1-I and its metabolites were quantified by liquid chromatography, electrospray ionization-tandem mass spectrometry (LC-ESI-MS/MS) as described previously (Merrill et al. Methods 36:207-224, 2005).
# AML xenograft tumors = details: U.S. Ser. No. 12/387,228; cited from earlier work
compound,measurement,setting,value
"CCCCCc1ccc(/C=C/[C@H](O)[C@@H](CO)NC)cc1 [SK1-I, (2R,3S,4E)-N-methyl-5-(4′-pentylphenyl)-2-aminopent-4-ene-1,3-diol]",apoptosis,[1],markedly induced apoptosis
same,water solubility,[2],water-soluble
same,phosphorylation of Akt at Thr308 and Ser473,Akt,markedly suppressed
same,cell growth,"GBM6 glioblastoma cells; GBM6, 10 μM, presence of serum",markedly reduced growth
same,lowest concentration with significant growth inhibition,"GBM6 glioblastoma cells; GBM6, absence of serum",1 µM
same,apoptosis,[3],markedly induced apoptosis
same,PMA-stimulated F-actin reorganization at the leading edge and formation of lamellipodia,U373 cells,dramatically reduced
same,"LPA-, serum- and EGF-stimulated in vitro invasion of Matrigel",LN229 cells [4],greatly attenuated
same,TUNEL positive apoptotic tumor cells,LN229 xenograft tumors,increased numbers
same,VEGF expression in tumors,LN229 xenograft tumors,greatly reduced
same,blood vessel density (CD31 staining),LN229 xenograft tumors,reductions
same,phosphorylated Akt immunostaining in tumors,LN229 xenograft tumors,markedly decreased
same,vascularization in tumors (hematoxilin and eosin),LN229 xenograft tumors,decreased vascularization
same,reduction of tumor weight,"LN229 xenograft tumors; after 43 days, vs vehicle",~4 fold
same,tumor volume,"LN229 xenograft tumors; vs control, single factor ANOVA",significantly smaller tumors
same,pERK1/2 levels,ERK1/2,without affecting
same,chemotaxis toward lysophosphatidic acid (LPA),LN229 cells [5],drastically inhibited
same,chemotaxis toward serum and EGF,LN229 cells [5],significantly inhibited
same,EGF-induced tyrosine phosphorylation of EGFR or of Gab1,"EGFR, Gab1",did not affect
same,other metabolites,[6]; after 24 h,no other metabolites were detected
same,phosphorylation of the compound,[6]; in contrast to FTY720,not readily phosphorylated
same,tumor growth,AML xenograft tumors,inhibited growth
